Reference: US20040259853A1, “Methods for preventing acute clinical vascular events in a subject” (The Trustees of Columbia University, priority 2000, published 2004)

Experiments:
ER calcium stores = test: Assay of ER calcium pools (Fura-2, thapsigargin release); assay type: cell-based, mouse; settings: 70 nM, acetyl-LDL + 58035, 2.5 h (FIG. 18B)
Experimental: Shown are representative tracings of the 340/380-nm Fura-2 fluorescence ratio in an individual macrophage from each treatment group before and after addition of 1 μM thapsigargin.
Untreated or cholesterol-loaded macrophages on 25-mm coverslip-containing microscopy dishes were loaded with 4 μM Fura-2 μM (Molecular Probes) and 0.08% Pluronic F-127 in Hank's buffered saline solution (HBSS) at room temperature for 30 min. The monolayers were then washed twice with HBSS, incubated with HBSS for an additional 30 min and mounted on the stage of an inverted Nikon diaphot microscope equipped with a 40× objective. Sulfinpyrazone (250 μM) was included in all solutions to prevent excretion of the Fura-2 by the macrophages. Fluorescence images (510-nm emission following alternate 340-nm and 380-nm excitation) were collected through a charge-coupled device camera (Photon Technology International), and the 340:380 ratio of individual cells in these images was calculated.
Cells exposed to U18666A alone or culture media with no additives served as further control groups. […] Thapsigargin treatment results in emptying of ER calcium stores into the cytosol, which was quantified by fluorescence microscopy, providing a measure of releasable ER calcium stores at the time of thapsigargin addition.

[1] = tested on: ABCA1-independent efflux to HDL2; test: 3H-cholesterol efflux to HDL2 from free cholesterol-loaded macrophages; assay type: cell-based, mouse; settings: 70 nM, FC-loaded macrophages (FIG. 12B)
Experimental: Acetyl-LDL (800 μg) was incubated with 10 μCi ^3H-cholesterol for 30 min at 37° C., followed by addition of 8 ml of DMEM, 0.2% BSA. The macrophages were incubated with this medium for 5 h, washed 3 times with PBS, and then incubated with DMEM, 0.2% BSA for 15 min at 37° C. After washing with PBS, the macrophages were incubated with DMEM, 0.2% BSA, containing either 15 μg/ml apoAI or 20 μg/ml HDL2. At the indicated time points, 100 μl of media was removed and centrifuged for 5 min at 14,000 rpm to pellet cellular debris. The radioactivity in this fraction of media was quantitated by liquid scintillation counting. After the last time point, the remainder of the media was removed, and the cells were dissolved in 0.5 ml of 0.1 N NaOH containing 0.5% sodium dodecylsulfate (5 h at room temperature). A 100 μl-aliquot of the cell lysate was counted, and the percent efflux was calculated as (media cpm)[…](cell +media cpm)×100. Total protein in the cell lysate was determined using the Bio-Rad DC protein assay kit. Note that there was no statistical difference in cellular cpm or protein between cholesteryl ester- and free cholesterol-loaded macrophages.

[2] = tested on: mouse peritoneal macrophages; test: Annexin V / propidium iodide cell death assay of macrophages
Text: Representative fluorescence images and quantitative cell death data from five fields of cells for each condition are shown, expressed as the percent of total cells that stained with annexin V or propidium iodide (mean±S.E.M.; n=5 fields of cells, where each field had ˜200 cells).
Representative fluorescence images and quantitative data are shown (mean±S.E.M.; n=5 fields of cells, where each field had ˜200 cells).
Representative fluorescence images are shown in FIG. 19A, and quantitative apoptosis data from five fields of cells for each condition are shown in FIG. 19B, expressed as the percent of total cells that stained with annexin V or propidium iodide (mean±S.E.M.; n=5 fields of cells, where each field had ˜200 cells).
Peritoneal macrophages from adult female C57BL/6 mice and all mutant mice used in this study were harvested three days after the intraperitoneal injection of 40/g of concanavalin A in 0.5 ml of PBS. The cells were incubated in Dulbecco's modified Eagle's medium (DMEM) supplemented with 10% fetal bovine serum (FBS) and 20% L-cell conditioned medium. The medium was replaced every 24 hours until the macrophages were confluent. On the day of the experiment, the cells were washed three times with warm PBS and incubated as indicated in the Description of Figures for FIGS. 15A-20E. Most importantly, FC-loading of wild type and mutant macrophages was effected by incubating the cells with 100 μg/ml acetyl-LDL in the presence of 10 μg/ml 58035, which inhibits ACAT-mediated cholesterol esterification (11). At the end of the incubation period, the macrophages were assayed for early-mid-stage apoptosis (i.e., phosphatidylserine externalization) by staining with Alexa-488-labeled annexin V and for late-stage apoptosis (i.e., increased membrane permeability) by staining with propidium iodide (PI), as previously described (11). Cells were immediately viewed with an Olympus IX-70 inverted fluorescence microscope, and 3-6 representative fields (˜1000 cells) for each condition were counted for the number of annexin-positive, PI-positive, and total cells.

[3] = tested on: ABCA1-mediated cholesterol efflux; test: 3H-cholesterol efflux to apoA-I from free cholesterol-loaded macrophages; assay type: cell-based, mouse; settings: 70 nM; macrophages incubated for a prolonged period with acetyl-LDL without ACAT inhibitor (FIG. 12C)
[4] = tested on: cholesterol trafficking to the endoplasmic reticulum; test: Whole-cell cholesterol esterification assay (cholesterol trafficking to ER membranes); assay type: cell-based, mouse
Experimental: Shown is the mean±S.E.M (n=3) of [^3H]cholesteryl ester formed (in cpm/mg cell protein).
Macrophages were incubated for 5 h with DMEM, 0.2% BSA containing 50 μg/ml [^3H]cholesterol-labeled acetyl-LDL alone or containing the indicated compounds. Cellular lipids were extracted twice with 0.5 ml of hexane:isopropanol (3:2, v/v), and the cellular content of [^3H]cholesteryl ester was determined using thin-layer chromatography (49). The lipid-extracted cell monolayer was dissolved in 1 ml 1N NaOH and assayed for protein content using the method of Lowry et al. (50).

SMILES: CCN(CC)CCO[C@H]1CC[C@@]2(C)C(=CC[C@@H]3[C@@H]2CC[C@]2(C)C(=O)CC[C@@H]32)C1 [U18666A, 3-β-[2-(diethylamino)ethoxy]androst-5-en-17-one]
- FC-loading-induced depletion of ER calcium stores (smaller thapsigargin-induced rise) (ER calcium stores): completely prevented
- ABCA1-independent efflux (to HDL2) [1]: improved
- staurosporine-induced macrophage apoptosis ([2]; data not shown): failed to protect
- FC-induced death of Perk−/− macrophages ([2]; low dose (70 nM), 10 h (FIGS. 19A, 19B)): markedly protected
- FC-induced macrophage death ([2]; low dose (70 nM), acetyl-LDL + 58035, 8 h (FIG. 15C)): protected macrophages from the lethal effect of cholesterol loading
- increase of cholesterol efflux to apoA-I [3]: about 30%
- decrease of cholesterol trafficking to the endoplasmic reticulum ([4]; 70 nM (data not shown)): about 90%
- reduction of re-esterification of ingested cholesterol ([4]; low dose (70 nM), 5 h, acetyl-LDL (FIG. 15A)): 90%
